How the values were obtained:
[1] = tested on: STING-dependent genes in murine embryonic fibroblasts; test: Gene array and qPCR of WT and SKO MEFs treated with AOM or DMH; type: cell-based, mouse; settings: WT and SKO MEFs; DMH 1 mM for 8 hours
Experimental: FIGS. 1A-1E show activation of STING-dependent genes by azoxymethane (AOM) (FIG. 1A) Gene array analysis of Wild type (WT) and STING deficient (SKO) mouse embryonic fibroblasts (MEFs) treated with AOM at 0.14 mM for 8 hours (Left) and 1,2-dimethylhydrazine (DMH) at 1 mM for 8 hours (Right). Highest variable genes are shown. Rows represent individual genes; columns represent individual samples. Grayscale indicates transcript levels below, equal to, or above the mean. Scale represents the intensity of gene expression (log 2 scale ranges between −2.4 and 2.4). (FIG. 1B) qPCR analysis of Cxcl10 and Ifit3 in MEFs treated with AOM and DMH same as FIG. 1A. (FIG. 1C) qPCR analysis of Cxcl10 in Human epithelial cell (FHC) treated with AOM and DMH at 1 mM for 24 hours. (FIG. 1D) FHC cells were transfected with STING or control siRNA for 72 hours followed by AOM and DMH treatment same as FIG. 1C, and were then subjected to Cxcl0 mRNA expression (Left). STING expression level after siRNA treatment was determined by qPCR (Right). […] (FIG. 1E) STING Immunohistochemistry staining of the colon tissue from WT and SKO mice (Left) and Human. All images were shown at original magnification, 200×.
Towards these objectives, the AOM/DSS model, as described above, was utilized and analyzed the effects of AOM and precursor DMH upon STING signaling. Principally, wild type (WT) or STING-deficient (SKO) murine embryonic fibroblasts (MEF) were treated in vitro with DMH or metabolite AOM for 8 hours and microarray analysis performed to analyze the consequences to gene expression. […] The observed STING-dependent gene expression was confirmed following RT-PCR analysis of select mRNA such as Cxcl10 and IFIT3 (FIG. 1B). […] Thus, the DNA damaging agent DMH/AOM can invoke STING-dependent signaling.
Total RNA was isolated from cells or tissues with RNeasy Mini kit (74104, Qiagen, Valencia, Calif.). RNA quality was analyzed by Bionalyzer RNA 6000 Nano (Agilent Technologies, Santa Clara Calif.). […]

IRF3/NF-κB translocation = test: Immunofluorescence of IRF3/NF-κB translocation in FHC treated with DMH/AOM; type: cell-based, human; settings: 3 mM for 48 hours
Experimental: FIGS. 8A-8C show fluorescence microscopy analysis (related to FIG. 1) of DAPI staining in WT and SKO MEFs treated with 3 mM of AOM of 3 mM of DMH (FIG. 8A) and anti-dsDNA staining and the ration of cytoplasm to nucleus (FIG. 8B) in Human normal colon epithelial cells (FHC) treated with 3 mM of AOM or 3 mM of DMH for 48 hours. (FIG. 8C) Immunofluorescence microscopy analysis of FHC treated with AOM and DMH sane as FIG. 8A for 48 hours using p65 or IRF3 antibody. Images shown at original magnification, 160×.
To start determining the mechanisms underlining the cause of DMH/AOM-induced STING activity, MEF or FHC cells were treated with these drugs and observed by two different approaches, DAPI staining and immunofluorescence (IF) using anti-dsDNA antibody, the leakage of DNA into the cytosol (FIGS. 8A and 8B). Cytosolic DNA activates STING and stimulates STING/TBK1 trafficking via autophagy to endosomal regions harboring the transcription factors IRF3 and NF-κB, which triggers cytokine production. […]
Cells were cultured and treated in their appropriate media on Lab-Tek II chamber slides. […] Immunostaining was performed with rabbit-anti-STING polyclonal followed by fluorescence conjugated secondary antibodies (FITC-goat-anti-rabbit) (Invitrogen). […]

type I IFN production = test: IFNB induction (qPCR) in normal and colon cancer cells treated with AOM or DMH; type: cell-based, human; settings: 15 mM for 20 hours
Experimental: FIG. 22. Normal and colon cancer cells were treated with AOM or DMH at 15 mM for 20 hours. IFNB induction was analyzed by qPCR. STING, IRF3 and NF-kB translocation was examined: +, translocation; −, no translocation.
The question arises as to why the STING-signaling pathway may be inhibited in colon adenocarcinoma. Recently, it was shown that STING-deficient cells and mice are sensitive to AOM-induced DNA damage. In this situation, the STING pathway may play a role in the DNA-damage response pathway, to induce the production of cytokines which facilitate tissue repair or damaged cell removal (Chatzinikolaou et al., 2014; Kidane et al., 2014; Lord and Ashworth, 2012). As such, innate immune induction of CA cells in response to DNA damaging agents was examined. […] Thus, the inhibition of the STING pathway may enable DNA damaged cells, harboring mutations, to escape part of the DNA damage response and the immune surveillance machinery to progress into a tumorigenic state.

`CNNC` [DMH, 1,2-dimethylhydrazine] was tested, and the STING-dependent gene expression [1] was “A similar effect was observed”, the “translocation of IRF3/NF-κB” value (IRF3/NF-κB translocation) was “could instigate the translocation of IRF3/NF-κB” and the “production of type I IFN” value (type I IFN production; CA cells with defective STING activated IRF3 or NF-kB activity) was “unable to generate type I IFN”. The “production of type I IFN” value (type I IFN production; normal colon epithelial (CCD841) and LS123) was “able to induce the production of type I IFN”.

From patent publication US10821142B2, “Cancer treatment and diagnosis” (priority 2015, dated 2020)
